Values quoted from earlier work in PMC2818531 (Bioorganic & medicinal chemistry letters, 2009).

Biological target: HIV gp41 six-helix bundle (6-HB) (Human immunodeficiency virus type 1 group M subtype B, UniProt P04578)
Conditions: read-out: EC50, inhibition of gp41 6-helical bundle formation

HIV gp41 six-helix bundle (6-HB), sequence (P04578 546-581): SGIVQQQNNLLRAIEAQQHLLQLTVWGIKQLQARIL

SMILES: Cc1ccc(C)n1-c1ccc(O)c(C(=O)O)c1 [Ligand A12]
- EC50: 37.4 µM
